Results on 24 molecules are retold here after patent US20250263405A1, “HISTONE DEACETYLASE 6 INHIBITOR COMPOUNDS AND USES THEREOF” (VALO HEALTH, INC., priority 2021, published 2025).

Each structure is given as a SMILES string. pIC50: −log10 of the molar value. Some results are limits rather than exact numbers.

The pIC50 is −log10 of the IC50, conventionally taken in molar units.

Sequence of HDAC6 (Q9UBN7 whole entry): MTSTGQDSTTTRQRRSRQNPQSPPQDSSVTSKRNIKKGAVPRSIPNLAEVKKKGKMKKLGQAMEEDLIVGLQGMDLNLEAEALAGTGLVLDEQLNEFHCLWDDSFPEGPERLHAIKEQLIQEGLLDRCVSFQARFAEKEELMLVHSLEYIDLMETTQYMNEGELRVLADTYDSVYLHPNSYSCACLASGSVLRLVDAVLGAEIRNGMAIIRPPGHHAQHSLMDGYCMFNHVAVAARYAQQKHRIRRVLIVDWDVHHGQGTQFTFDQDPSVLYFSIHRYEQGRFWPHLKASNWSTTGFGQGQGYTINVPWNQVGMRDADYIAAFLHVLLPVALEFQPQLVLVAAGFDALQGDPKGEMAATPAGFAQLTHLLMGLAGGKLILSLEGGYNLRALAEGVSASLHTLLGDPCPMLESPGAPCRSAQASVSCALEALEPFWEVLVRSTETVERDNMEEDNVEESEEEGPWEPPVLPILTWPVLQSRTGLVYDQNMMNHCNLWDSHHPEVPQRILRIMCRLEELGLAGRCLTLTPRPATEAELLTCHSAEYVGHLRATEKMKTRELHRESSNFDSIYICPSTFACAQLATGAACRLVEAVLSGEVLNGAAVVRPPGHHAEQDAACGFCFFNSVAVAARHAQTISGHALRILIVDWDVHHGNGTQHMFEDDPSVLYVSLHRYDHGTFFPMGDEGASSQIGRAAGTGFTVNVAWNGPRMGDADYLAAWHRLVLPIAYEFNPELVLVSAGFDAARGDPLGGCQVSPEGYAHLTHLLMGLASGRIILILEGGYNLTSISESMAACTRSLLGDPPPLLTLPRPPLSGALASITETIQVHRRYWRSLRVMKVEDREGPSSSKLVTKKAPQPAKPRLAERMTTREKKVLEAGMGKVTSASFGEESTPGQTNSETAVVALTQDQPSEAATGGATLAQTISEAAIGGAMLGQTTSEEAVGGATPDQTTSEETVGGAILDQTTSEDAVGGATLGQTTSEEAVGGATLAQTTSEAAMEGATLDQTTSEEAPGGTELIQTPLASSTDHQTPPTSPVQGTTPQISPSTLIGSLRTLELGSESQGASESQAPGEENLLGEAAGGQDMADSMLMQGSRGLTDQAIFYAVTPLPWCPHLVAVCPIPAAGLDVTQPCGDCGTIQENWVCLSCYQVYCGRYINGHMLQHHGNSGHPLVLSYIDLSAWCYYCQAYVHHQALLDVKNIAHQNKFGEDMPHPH

For this assay, the target named is HDAC6 (Homo sapiens (Human), UniProt Q9UBN7). The assay can be described thus: HDAC6 TR-FRET displacement assay. In kind it is binding. The conditions noted are these: displacement of fluorescein labeled tracer from HDAC6; 2 nM HDAC6, 1 nM tracer, 0.5 nM Tb-anti-GST antibody; 30 min pre-incubation, 6 hours at 25° C. The text has this:
HDAC6 and Tb-anti-GST antibody were purchased from Signal Chem (cat #PC124) and Cisbio (cat #61GSTTAH), respectively. HEPES, pH 7.5 was purchased from Teknova (Cat #H1575). All other buffer components, NaCl (cat #S5150), KCl (cat #60121), Triton X-100 (cat #T9284), GSH (cat #G4251), BGG (cat #G5009), and BSA (cat #A2153) were purchased from SIGMA.
Displacement of fluorescein labeled tracer 2-(6-hydroxy-3-oxo-3H-xanthen-9-yl)-5-({[5-(4-{[7-(hydroxycarbamoyl)-2H,3H,4H,5H-thieno[2,3-f][1,4]oxazepine-4-carbonyl]amino}phenoxy)pentyl]carbamothioyl}amino)benzoic acid from HDAC6 was measured in vitro using a TR-FRET assay. The assays were performed in 1536-well plates in a total volume of 6 μL in assay buffer consisting of 50 mM HEPES pH 7.5, 50 mM NaCl, 50 mM KCl, 0.01% Triton X-100, 0.5 mM GSH, 0.03% BGG, 0.01% BSA.
For concentration response curves (IC50 determination), Compounds were serially diluted 3-fold from 2 mM highest concentration to generate a 10-point concentration gradient. To perform the assay, 30 nL of compound gradient solutions were transferred to the assay plate using the ECHO acoustic dispenser to achieve a final concentration range of 10 μM to 0.000508 uM in 6 μL reaction. 3 μL of HDAC6 in assay buffer were added to the assay plates and pre-incubate at room temp. for 30 mins. After pre-incubation, 3 μL of the tracer and TB-anti-GST antibody mix were added to the assay plates. The final concentrations of HDAC6, tracer, and TB-anti-GST antibody for each assay are 2 nM, 1 nM, and 0.5 nM, respectively. Binding reactions were equilibrated at 25° C. for an additional 6 hours, then read in endpoint mode on the BMG PheraStar (BMG labtech) equipped with a 337-520-490 optical module. The ratio of the 520/490 nm emission was calculated to determine the relative amounts of HDAC6 and tracer complex residue in each well.
The percent inhibition of HDAC6 (IC50) was calculated according to the following equation.
As set forth in Table 1, “A” indicates an HDAC6 IC50 value of less than 200 nM; “B” indicates an HDAC6 IC50 value of greater than or equal to 200 nM and less than 500 nM; and “C” indicates an HDAC6 IC50 value of greater than or equal to 500 nM and less than 5 μM.
(In general: Time-resolved FRET reads energy transfer from a long-lived donor to a nearby acceptor.)
Turning to `CC1(C(=O)N2Cc3ccc(-c4noc(C(F)(F)F)n4)cc3OC[C@@H]2C2CC2)CCOCC1` [Compound 32, (3S)-3-cyclopropyl-4-[(4-methyloxan-4-yl)carbonyl]-8-[5-(trifluoromethyl)-1,2,4-oxadiazol-3-yl]-3,5-dihydro-2H-1,4-benzoxazepine], the pIC50 is over 6.70.
In turn, `C[C@H]1COc2cc(-c3noc(C(F)(F)F)n3)ccc2CN1S(C)(=O)=O` [Compound 33, (S)-3-methyl-4-(methylsulfonyl)-8-(5-(trifluoromethyl)-1,2,4-oxadiazol-3-yl)-2,3,4,5-tetrahydrobenzo[f][1,4]oxazepine] gave a pIC50 of 6.30 to 6.70.
Take `C[C@H]1COc2cc(-c3noc(C(F)(F)F)n3)ccc2CN1S(=O)(=O)C(C)(C)C` [Compound 34, (3S)-3-methyl-4-(2-methylpropane-2-sulfonyl)-8-[5-(trifluoromethyl)-1,2,4-oxadiazol-3-yl]-3,5-dihydro-2H-1,4-benzoxazepine]: the pIC50 was 6.30 to 6.70.
On to `C[C@H]1COc2cc(-c3noc(C(F)(F)F)n3)ccc2CN1C` [Compound 35, (S)-3,4-dimethyl-8-(5-(trifluoromethyl)-1,2,4-oxadiazol-3-yl)-2,3,4,5-tetrahydrobenzo[f][1,4]oxazepine], for which the pIC50 was 6.30 to 6.70.
Regarding `C[C@H]1COc2cc(-c3noc(C(F)(F)F)n3)ccc2CN1CC(F)(F)F` [Compound 36, (S)-3-methyl-4-(2,2,2-trifluoroethyl)-8-(5-(trifluoromethyl)-1,2,4-oxadiazol-3-yl)-2,3,4,5-tetrahydrobenzo[f][1,4]oxazepine], the pIC50 was 5.30 to 6.30.
`CC1(C(=O)N2CCOc3cc(-c4noc(C(F)(F)F)n4)cc(F)c3C2)COC1` [Compound 37, 6-fluoro-4-[(3-methyloxetan-3-yl)carbonyl]-8-[5-(trifluoromethyl)-1,2,4-oxadiazol-3-yl]-3,5-dihydro-2H-1,4-benzoxazepine]: the pIC50 was over 6.70.
Under `CC(C)C(=O)N1Cc2c(F)cc(-c3noc(C(F)(F)F)n3)cc2OC[C@@H]1C` [Compound 38, 1-[(3S)-6-fluoro-3-methyl-8-[5-(trifluoromethyl)-1,2,4-oxadiazol-3-yl]-3,5-dihydro-2H-1,4-benzoxazepin-4-yl]-2-methylpropan-1-one] stands over 6.70; under `C[C@H]1COc2cc(-c3noc(C(F)(F)F)n3)cc(F)c2CN1C(=O)C1CCOCC1` [Compound 39, (3S)-6-fluoro-3-methyl-4-[(oxan-4-yl)carbonyl]-8-[5-(trifluoromethyl)-1,2,4-oxadiazol-3-yl]-3,5-dihydro-2H-1,4-benzoxazepine], over 6.70; under `C[C@H]1COc2cc(-c3noc(C(F)(F)F)n3)cc(F)c2CN1C(=O)CO` [Compound 40, 1-[(3S)-6-fluoro-3-methyl-8-[5-(trifluoromethyl)-1,2,4-oxadiazol-3-yl]-3,5-dihydro-2H-1,4-benzoxazepin-4-yl]-2-hydroxyethanone], 6.30 to 6.70.
In turn, `COCC(=O)N1Cc2c(F)cc(-c3noc(C(F)(F)F)n3)cc2OC[C@@H]1C` [Compound 41, 1-[(3S)-6-fluoro-3-methyl-8-[5-(trifluoromethyl)-1,2,4-oxadiazol-3-yl]-3,5-dihydro-2H-1,4-benzoxazepin-4-yl]-2-methoxyethanone] showed a pIC50 of over 6.70.
On to `C[C@H]1COc2cc(-c3noc(C(F)(F)F)n3)cc(F)c2CN1C(=O)CCN(C)C` [Compound 42, (S)-3-(dimethylamino)-1-(6-fluoro-3-methyl-8-(5-(trifluoromethyl)-1,2,4-oxadiazol-3-yl)-2,3-dihydrobenzo[f][1,4]oxazepin-4(5H)-yl)propan-1-one], for which the pIC50 is 6.30 to 6.70.
Under `C[C@H]1COc2cc(-c3noc(C(F)(F)F)n3)cc(F)c2CN1C(=O)CN(C)C` [Compound 43, (S)-2-(dimethylamino)-1-(6-fluoro-3-methyl-8-(5-(trifluoromethyl)-1,2,4-oxadiazol-3-yl)-2,3-dihydrobenzo[f][1,4]oxazepin-4(5H)-yl)ethan-1-one] stands 6.30 to 6.70; under `C[C@H]1COc2cc(-c3noc(C(F)(F)F)n3)cc(F)c2CN1C(=O)c1ccccc1` [Compound 44, (3S)-4-benzoyl-6-fluoro-3-methyl-8-[5-(trifluoromethyl)-1,2,4-oxadiazol-3-yl]-3,5-dihydro-2H-1,4-benzoxazepine], 6.30 to 6.70.
As for `C[C@H]1COc2cc(-c3noc(C(F)(F)F)n3)cc(F)c2CN1C(=O)Cc1ccncc1` [Compound 46, 1-[(3S)-6-fluoro-3-methyl-8-[5-(trifluoromethyl)-1,2,4-oxadiazol-3-yl]-3,5-dihydro-2H-1,4-benzoxazepin-4-yl]-2-(pyridin-4-yl) ethenone], the figure is over 6.70; as for `CC1(C(=O)N2Cc3ccc(-c4noc(C(F)(F)F)n4)cc3OCC23CC3)COC1` [Compound 47, (3-methyloxetan-3-yl)(8-(5-(trifluoromethyl)-1,2,4-oxadiazol-3-yl)-2H-spiro[benzo[f][1,4]oxazepine-3,1′-cyclopropan]-4(5H)-yl)methanone], 6.30 to 6.70.
Under `CC(=O)N1CCC(C)(C(=O)N2Cc3c(F)cc(-c4noc(C(F)(F)F)n4)cc3OC[C@@H]2C)CC1` [Compound 48, (S)-1-(4-(6-fluoro-3-methyl-8-(5-(trifluoromethyl)-1,2,4-oxadiazol-3-yl)-2,3,4,5-tetrahydrobenzo[f][1,4]oxazepine-4-carbonyl)-4-methylpiperidin-1-yl)ethan-1-one] stands 6.30 to 6.70.
For `C[C@H]1COc2cc(-c3noc(C(F)(F)F)n3)cc(F)c2CN1C(=O)c1ccncc1` [Compound 49, (3S)-6-fluoro-3-methyl-4-[(pyridin-4-yl)carbonyl]-8-[5-(trifluoromethyl)-1,2,4-oxadiazol-3-yl]-3,5-dihydro-2H-1,4-benzoxazepine], the pIC50 was 6.30 to 6.70.
In turn, `CC1Oc2cc(-c3noc(C(F)(F)F)n3)ccc2CNC1=O` (stereo not drawn) [Compound 50, 2-methyl-8-[5-(trifluoromethyl)-1,2,4-oxadiazol-3-yl]-4,5-dihydro-2H-1,4-benzoxazepin-3-one] showed a pIC50 of over 6.70.
For the molecule `FC(F)(F)c1nc(-c2ccc3c(c2)OCCN(c2nc4ccccc4[nH]2)C3)no1` [Compound 51, 4-(1H-benzo[d]imidazol-2-yl)-8-(5-(trifluoromethyl)-1,2,4-oxadiazol-3-yl)-2,3,4,5-tetrahydrobenzo[f][1,4]oxazepine], the pIC50 was over 6.70.
The molecule `CC1(C(=O)N2CCOc3cc(-c4noc(C(F)(F)F)n4)ccc3C2)COC1` [Compound 52, 4-[(3-methyloxetan-3-yl)carbonyl]-8-[5-(trifluoromethyl)-1,2,4-oxadiazol-3-yl]-3,5-dihydro-2H-1,4-benzoxazepine] showed a negative-log IC50 (pIC50) of 6.30 to 6.70.
Regarding `CC(C)C(=O)N1CCOc2cc(-c3noc(C(F)(F)F)n3)ccc2C1` [Compound 53, 2-methyl-1-{8-[5-(trifluoromethyl)-1,2,4-oxadiazol-3-yl]-3,5-dihydro-2H-1,4-benzoxazepin-4-yl}propan-1-one], the pIC50 was 6.30 to 6.70.
As for `O=C(C1CCOCC1)N1CCOc2cc(-c3noc(C(F)(F)F)n3)ccc2C1` [Compound 54, 4-[(oxan-4-yl)carbonyl]-8-[5-(trifluoromethyl)-1,2,4-oxadiazol-3-yl]-3,5-dihydro-2H-1,4-benzoxazepine], the pIC50 was 6.30 to 6.70.
With `CCN1CCC(C)(C(=O)N2Cc3c(F)cc(-c4noc(C(F)(F)F)n4)cc3OC[C@@H]2C)CC1` [Compound 55, (S)-(1-ethyl-4-methylpiperidin-4-yl)(6-fluoro-3-methyl-8-(5-(trifluoromethyl)-1,2,4-oxadiazol-3-yl)-2,3-dihydrobenzo[f][1,4]oxazepin-4(5H)-yl)methanone], the pIC50 is 6.30 to 6.70.
For the molecule `CC(C)N1CCC(C)(C(=O)N2Cc3c(F)cc(-c4noc(C(F)(F)F)n4)cc3OC[C@@H]2C)CC1` [Compound 56, (S)-(6-fluoro-3-methyl-8-(5-(trifluoromethyl)-1,2,4-oxadiazol-3-yl)-2,3-dihydrobenzo[f][1,4]oxazepin-4(5H)-yl)(1-isopropyl-4-methylpiperidin-4-yl)methanone], the pIC50 was over 6.70.
